From patent US20080318891A1, “Antisense oligonucleotides against thymidylate synthase” (priority 1998, published 2008)

Test system: TS protein
Assay: TS binding assay ([6-3H]5-FdUMP binding) in HeLa cell lysates
Format: cell-based, human
Conditions: HeLa cells, different times following transfection
Description: 5-FdUMP binding was measured in cells transfected with ODN 83 (hatched bars) or ODN 32 (open bars) at different times following transfection. (A) Results are plotted as a percent of 5-FdUMP binding in cells transfected with control ODN 32±SE (n=5). The values for ODN 32 (n=5) were normalized to 100% and are shown without error bars. […] Error bars indicate errors calculated according to a Student t-test, and indicate error due to differences in experimental conditions in 5 measurements taken on different days, and differences due to transfection with different ODNs. The asterisks indicate significant differences (p<0.02) determined by using a paired Student t-test.
TS binding assay: Cellular content of TS was assayed by binding of [6-^3H]5-FdUMP. […] The assay was performed using cells that were treated with antisense ODN 83 or the scrambled control ODN 32. Briefly, cells were harvested by scraping into PBS and resuspending the subsequent pellet in 100 mM KH2PO4 (pH 7.4). […] The total protein concentration was determined using Coomassie staining (BioRad reagent) (MI) in order to express results as pmol 5-FdUMP bound per mg total protein. 5-FdUMP binding was assessed in paired lysates from cells transfected with ODN 83 or ODN 32, in separate incubation reactions carried out on different days; however, pairs were always assessed together under the same reaction conditions. […]

Substance: ODN 32: scrambled control, randomised sequence of ODN 83, 5′-ATGCGCCAACGGTTCCTAAA-3′ (all phosphorothioate, sugars by position and methylation of C not given here; further chemistry not fully specified) [reference compound]
- TS protein levels (inferred by 5-FdUMP binding): no significant effect
